According to US8815517B2, “Methods for identifying functionally related genes and drug targets” (Ribonomics, Inc., priority 1999, dated 2014):

Assays:
Type in all cases: cell-based, murine
G11 cells [1] = experiment: Induction of differentiation of HuB (Hel-N2) stably transfected P19 (G11) cells; settings: 5% DMSO, harvested after about eight days
Procedure: The cells were then plated into two 100 mm gelatin-coated tissue culture plates. Cells were harvested after an additional four days. […] Neuronal differentiation was induced by treating 5×10^5 G11 or P19 cells placed on a 60 mm petri dish with 0.5 μM RA (Sigma-Aldrich, St. Louis, Mo., Catalog # R2625). Muscle differentiation was induced by treating 5×10^5p19 cells placed on a 60 mm petri dish with 5% DMSO (Sigma-Aldrich, St. Louis, Mo., Catalog # D2650). After two days, 25% of the cells that had formed into clumps were removed, placed in new petri dishes, and supplemented with fresh medium and RA or DMSO. Following an additional two days, cell aggregates were washed once with phosphate-buffered saline (PBS) and trypsinized. The cells were then plated into two 100 mm gelatin-coated tissue culture plates. Cells were harvested after an additional four days. […] Cell extracts and immunoprecipitations were performed as described in Example 1. Monoclonal anti-gene 10 (g10) antibodies were obtained from Duke University (Durham, N.C.) as previously described in Examples 1 and 2.

G11 cells [2] = experiment: Quantitative PCR of CACN, CELSR and MBNL RNA expression in G11 cells over the time course of differentiation; settings: time course of one to nine days
Procedure: The expression of these three genes was analyzed by Quantitative RT-PCR during a time course of one to nine days of treatment with either dimethyl-sulfoxide or retinoic acid. To verify a role in neuronal differentiation, a comprehensive transcriptional analysis by Quantitative PCR was undertaken looking at the patterns of RNA expression for the […], and MBNL genes in the G11 cells (constitutively expressing HuB) and in the parental P19 cells (FIGS. 12A, 12B, and 12C).

G11 cells [3] = experiment: Microarray of total cellular RNA of G11 cells, differentiated/undifferentiated; settings: change in amount of RNA, day 1 and day 9
Procedure: Neuronal differentiation was induced by treating 5×10^5 G11 or P19 cells placed on a 60 mm petri dish with 0.5 μM RA (Sigma-Aldrich, St. Louis, Mo., Catalog # R2625). Muscle differentiation was induced by treating 5×10^5p19 cells placed on a 60 mm petri dish with 5% DMSO (Sigma-Aldrich, St. Louis, Mo., Catalog # D2650). After two days, 25% of the cells that had formed into clumps were removed, placed in new petri dishes, and supplemented with fresh medium and RA or DMSO. Following an additional two days, cell aggregates were washed once with phosphate-buffered saline (PBS) and trypsinized. The cells were then plated into two 100 mm gelatin-coated tissue culture plates. Cells were harvested after an additional four days. […] Cell extracts and immunoprecipitations were performed as described in Example 1. Monoclonal anti-gene 10 (g10) antibodies were obtained from Duke University (Durham, N.C.) as previously described in Examples 1 and 2. Following immunoprecipitation, the associated mRNAs were identified on high density mouse 12K glass slide microarrays (Mouse cDNA microarray kit, Catalog # […], Agilent Technologies, Palo Alto, Calif.). RNA labeling and microarray analysis was performed according to the manufacturer's protocols (Agilent Technologies, Palo Alto, Calif.).

C[S+](C)[O-] [DMSO, dimethyl-sulfoxide]
muscle differentiation (morphology and markers) (G11 cells [1]): displayed characteristic muscle cell markers and morphology | expression patterns of the CACN, CELSR and MBNL genes (G11 cells [2]): failed to induce changes

CC1=C(/C=C/C(C)=C/C=C/C(C)=C/C(=O)O)C(C)(C)CCC1 [RA, retinoic acid]
ΔTotal Cellular RNA, CACN (G11 cells [3]): +1.31X | ΔTotal Cellular RNA, CELSR (G11 cells [3]): −1.33X | ΔTotal Cellular RNA, MBNL (G11 cells [3]): +1.42X
